Experimental data taken from patent US20230141603A1, “BENZODIAZEPINE DERIVATIVES AS GABA A GAMMA1 PAM” (Hoffmann-La Roche Inc., priority 2021, published 2023).

What was measured:
h-GABAA α2β2γ1 = biological target: T1, h-GABAA α2β2γ1 (Homo sapiens, UniProt P47869+Q8N1C3); assay: Two-electrode voltage clamp electrophysiology in Xenopus oocytes, modulation of GABA EC20 current; assay type: cell-based; set-up: host or cells: Xenopus laevis oocytes, RNA micro-injection; settings: Table 2; for Efficacy (GABA)%: % modulation of GABA EC20 = 100*(Fold increase−1), compound at approx. 30-fold Ki; for Fold increase h-GABA-A α2β2γ1 oocyte @ 30-fold Ki: compound at approx. 30-fold its Ki α2β2γ1, GABA EC20, Xenopus oocytes
T1 sequence (P47869 29-451): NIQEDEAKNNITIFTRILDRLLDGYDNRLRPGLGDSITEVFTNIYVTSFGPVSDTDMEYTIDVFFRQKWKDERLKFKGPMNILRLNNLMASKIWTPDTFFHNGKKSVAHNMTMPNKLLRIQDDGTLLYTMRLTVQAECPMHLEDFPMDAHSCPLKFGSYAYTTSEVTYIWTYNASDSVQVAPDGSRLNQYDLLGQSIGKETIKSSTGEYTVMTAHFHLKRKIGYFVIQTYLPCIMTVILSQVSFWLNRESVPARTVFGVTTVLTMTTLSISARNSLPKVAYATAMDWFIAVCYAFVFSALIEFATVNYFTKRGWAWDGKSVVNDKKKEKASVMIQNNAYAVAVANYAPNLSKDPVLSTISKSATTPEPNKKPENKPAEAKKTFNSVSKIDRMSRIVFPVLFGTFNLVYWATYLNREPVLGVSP
T1 sequence (P47870 25-512 partner limits assumed): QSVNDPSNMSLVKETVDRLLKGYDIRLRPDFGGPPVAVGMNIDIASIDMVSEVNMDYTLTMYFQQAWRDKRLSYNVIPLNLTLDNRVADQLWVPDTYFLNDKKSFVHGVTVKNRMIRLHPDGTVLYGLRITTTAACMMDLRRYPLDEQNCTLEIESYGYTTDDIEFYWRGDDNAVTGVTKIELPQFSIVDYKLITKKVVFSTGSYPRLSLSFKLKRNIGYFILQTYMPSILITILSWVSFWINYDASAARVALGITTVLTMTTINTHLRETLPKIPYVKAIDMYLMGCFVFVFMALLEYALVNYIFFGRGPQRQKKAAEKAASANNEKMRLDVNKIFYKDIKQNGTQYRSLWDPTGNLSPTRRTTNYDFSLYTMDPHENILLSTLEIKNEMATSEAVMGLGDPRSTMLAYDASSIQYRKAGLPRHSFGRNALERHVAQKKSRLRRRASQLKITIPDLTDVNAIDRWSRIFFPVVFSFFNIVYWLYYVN
T1 sequence (Q8N1C3 36-465): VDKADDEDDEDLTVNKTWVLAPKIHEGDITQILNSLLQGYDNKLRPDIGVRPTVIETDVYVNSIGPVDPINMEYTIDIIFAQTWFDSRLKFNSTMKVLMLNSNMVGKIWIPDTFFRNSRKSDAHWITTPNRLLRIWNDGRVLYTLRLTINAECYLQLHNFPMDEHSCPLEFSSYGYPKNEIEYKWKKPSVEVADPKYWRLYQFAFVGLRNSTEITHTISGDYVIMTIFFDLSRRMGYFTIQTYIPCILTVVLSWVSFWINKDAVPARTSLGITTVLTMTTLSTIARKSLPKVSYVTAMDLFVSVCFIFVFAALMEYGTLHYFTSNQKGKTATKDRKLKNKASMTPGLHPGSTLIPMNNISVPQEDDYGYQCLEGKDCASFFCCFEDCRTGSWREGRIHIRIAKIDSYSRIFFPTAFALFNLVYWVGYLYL
Experimental: Xenopus laevis oocytes at maturation stages V-VJ were used for the expression of cloned mRNA encoding GABAA receptor subunits. Oocytes ready for RNA micro-injection were bought from Ecocyte, Castrop-Rauxel, Germany and stored in modified Barth's medium (composition in mM: NaCl 88, KCl 1, NaHCO3 2.4, HEPES 10, MgSO4 0.82, CaNO3 0.33, CaCl2 0.33, pH=7.5) at 20° C. until the experiment.
Oocytes were plated in 96-well plates for microinjection using the Roboinject automated instrument (MultiChannelSystems, Reutlingen, Germany). Approximately 50 nL of an aqueous solution containing the RNA transcripts for the subunits of the desired GABAA receptor subtype was injected into each oocyte. […] Oocytes were kept in modified Barth's medium (composition in mM: NaCl 88, KCl 1, NaHCO3 […], HEPES 10, MgSO4 0.82, CaNO3 0.33, CaCl2 0.33, pH=7.5) at 20° C. until the experiment.
Electrophysiological experiments were performed using the Roboocyte instrument (MultiChannelSystems, Reutlingen, Germany) on days 3 to 5 after the micro-injection of mRNA. During the experiment the oocytes were constantly superfused by a solution containing (in mM) NaCl 90, KCl 1, HEPES 5, MgCl2 1, CaCl2 1 (pH 7.4). Oocytes were impaled by two glass microelectrodes (resistance: 0.5-0.8 MΩ) which were filled with a solution containing KCl 1M+K-acetate 1.5 M and voltage-clamped to −80 mV. The recordings were performed at room temperature using the Roboocyte two-electrode voltage clamp system (Multichannelsystem). After an initial equilibration period of 1.5 min GABA was added for 1.5 min at a concentration evoking approximately 20% of a maximal current response (EC20). After another rest interval of 2.5 min GABA was again added evoking a response of similar amplitude and shape. […] Current traces were recorded at a digitization rate of 10 Hz during and shortly before and after the GABA application.
Each compound and concentration was tested on at least 3 oocytes. Different oocytes were used for different compound concentrations.
For the analysis, the digitized current traces of the first and second GABA response were superimposed and, if necessary, rescaled to equal maximal amplitudes. The ratio between the two responses during the time interval of test compound application was calculated point by point. The extremum of the resulting “ratio trace” was taken as the efficacy (“Fold increase”) of the compound expressed as “% modulation of GABA EC20” (100*(Fold increase−1)).

h-GABAA α1β3γ2 = biological target: T2, h-GABAA α1β3γ2 (Homo sapiens, UniProt P14867+P18507); assay: Radioligand binding assay, [3H]Flumazenil competition, HEK293F membranes; settings: for γ2/γ1 Selectivity Ratio: Ki α1β3γ2 (nM)/Ki α2β2γ1 (nM); for LogSel: Log[Ki α1β3γ2 (nM)/Ki α2β2γ1 (nM)]
T2 construct: expressed in transfected cells; host or cells: HEK293F cells, membranes
Experimental: The affinity of compounds at GABAA γ2 subunit-containing receptors was measured by competition for [^3H]Flumazenil (81.1 Ci/mmol; Roche) binding to HEK293F cells expressing human (transiently transfected) receptors of composition α1β3γ2.
Harvested pellets from HEK293F cells expressing the different GABAA γ2 receptor subtypes were resuspended in Mannitol Buffer pH 7.2-7.4 and processed as described above for the cells expressing the GABAA γ1 subunit-containing receptors.
Assays were incubated to equilibrium for 1 hour at 4° C. and harvested onto GF/C uni-filters (Packard) by filtration using a Packard harvester and washing with ice-cold wash buffer (50 mM Tris; pH 7.5). After drying, filter-retained radioactivity was detected by liquid scintillation counting. Ki values were calculated using Excel-Fit (Microsoft) and are the means of two determinations.

Fc1cccc(F)c1C1=NCc2nnc(-c3cccnn3)n2-c2ccc(Cl)c(Cl)c21 [Example 14, 7,8-dichloro-6-(2,6-difluorophenyl)-1-pyridazin-3-yl-4H-[1,2,4]triazolo[4,3-a][1,4]benzodiazepine]
Efficacy (GABA)% (h-GABAA α2β2γ1): 71%
Fold increase h-GABA-A α2β2γ1 oocyte @ 30-fold Ki (h-GABAA α2β2γ1): 1.71
Ki (h-GABAA α1β3γ2): 299 nM
γ2/γ1 Selectivity Ratio (h-GABAA α1β3γ2; Table 1): 86.6
LogSel (h-GABAA α1β3γ2; Table 1): 1.94
γ2/γ1 Selectivity Ratio (h-GABAA α1β3γ2; Table 3): 86.6
LogSel (h-GABAA α1β3γ2; Table 3): 1.9

Fc1cccc(F)c1C1=NCc2nncn2-c2ccc(Cl)c(Cl)c21 [Example 15, 7,8-dichloro-6-(2,6-difluorophenyl)-4H-[1,2,4]triazolo[4,3-a][1,4]benzodiazepine]
Efficacy (GABA)% (h-GABAA α2β2γ1): 60%
Fold increase h-GABA-A α2β2γ1 oocyte @ 30-fold Ki (h-GABAA α2β2γ1): 1.60
Ki (h-GABAA α1β3γ2): 249 nM
γ2/γ1 Selectivity Ratio (h-GABAA α1β3γ2; Table 1): 28.7
LogSel (h-GABAA α1β3γ2; Table 1): 1.46

Cc1ccc2c(c1Cl)C(c1c(F)cccc1F)=NCc1n[nH]c(=O)n1-2 [Example 16, 7-chloro-6-(2,6-difluorophenyl)-8-methyl-2,4-dihydro-[1,2,4]triazolo[4,3-a][1,4]benzodiazepin-1-one]
Efficacy (GABA)% (h-GABAA α2β2γ1): 68%
Fold increase h-GABA-A α2β2γ1 oocyte @ 30-fold Ki (h-GABAA α2β2γ1): 1.68
Ki (h-GABAA α1β3γ2): 666 nM
γ2/γ1 Selectivity Ratio (h-GABAA α1β3γ2; Table 1): 25.1
LogSel (h-GABAA α1β3γ2; Table 1): 1.40

Cc1ccc2c(c1Cl)C(c1c(F)cccc1F)=NCc1nncn1-2 [Example 17, 7-chloro-6-(2,6-difluorophenyl)-8-methyl-4H-[1,2,4]triazolo[4,3-a][1,4]benzodiazepine]
Efficacy (GABA)% (h-GABAA α2β2γ1): 70%
Fold increase h-GABA-A α2β2γ1 oocyte @ 30-fold Ki (h-GABAA α2β2γ1): 1.70
Ki (h-GABAA α1β3γ2): 493 nM
γ2/γ1 Selectivity Ratio (h-GABAA α1β3γ2; Table 1): 24.9
LogSel (h-GABAA α1β3γ2; Table 1): 1.40

Fc1ccccc1C1=NCc2nnc(-c3ccncn3)n2-c2ccc(Cl)c(Cl)c21 [Example 18, 7,8-dichloro-6-(2-fluorophenyl)-1-pyrimidin-4-yl-4H-[1,2,4]triazolo[4,3-a][1,4]benzodiazepine]
Efficacy (GABA)% (h-GABAA α2β2γ1): 70%
Fold increase h-GABA-A α2β2γ1 oocyte @ 30-fold Ki (h-GABAA α2β2γ1): 1.70
Ki (h-GABAA α1β3γ2): 865 nM
γ2/γ1 Selectivity Ratio (h-GABAA α1β3γ2; Table 1): 40.1
LogSel (h-GABAA α1β3γ2; Table 1): 1.60

COCCc1nnc2n1-c1ccc(Cl)c(Cl)c1C(c1c(F)cccc1F)=NC2 [Example 19, 7,8-dichloro-6-(2,6-difluorophenyl)-1-(2-methoxyethyl)-4H-[1,2,4]triazolo[4,3-a][1,4]benzodiazepine]
Efficacy (GABA)% (h-GABAA α2β2γ1): 72%
Fold increase h-GABA-A α2β2γ1 oocyte @ 30-fold Ki (h-GABAA α2β2γ1): 1.72
Ki (h-GABAA α1β3γ2): 829 nM
γ2/γ1 Selectivity Ratio (h-GABAA α1β3γ2; Table 1): 31.9
LogSel (h-GABAA α1β3γ2; Table 1): 1.50

Cc1ccc2c(c1Cl)C(c1c(F)cccc1F)=NCc1nnc(C)n1-2 [Example 20, 7-chloro-6-(2,6-difluorophenyl)-1,8-dimethyl-4H-[1,2,4]triazolo[4,3-a][1,4]benzodiazepine]
Efficacy (GABA)% (h-GABAA α2β2γ1): 57%
Fold increase h-GABA-A α2β2γ1 oocyte @ 30-fold Ki (h-GABAA α2β2γ1): 1.57
Ki (h-GABAA α1β3γ2): 289 nM
γ2/γ1 Selectivity Ratio (h-GABAA α1β3γ2; Table 1): 12.2
LogSel (h-GABAA α1β3γ2; Table 1): 1.09

CC(F)(F)c1ccc2c(c1Cl)C(c1c(F)cccc1F)=NCc1nncn1-2 [Example 21, 7-chloro-8-(1,1-difluoroethyl)-6-(2,6-difluorophenyl)-4H-[1,2,4]triazolo[4,3-a][1,4]benzodiazepine]
Efficacy (GABA)% (h-GABAA α2β2γ1): 100%
Fold increase h-GABA-A α2β2γ1 oocyte @ 30-fold Ki (h-GABAA α2β2γ1): 2.00
Ki (h-GABAA α1β3γ2): 1790 nM
γ2/γ1 Selectivity Ratio (h-GABAA α1β3γ2; Table 1): 34.5
LogSel (h-GABAA α1β3γ2; Table 1): 1.54

Cc1nnc2n1-c1ccc(C(C)(F)F)c(Cl)c1C(c1c(F)cccc1F)=NC2 [Example 22, 7-chloro-8-(1,1-difluoroethyl)-6-(2,6-difluorophenyl)-1-methyl-4H-[1,2,4]triazolo[4,3-a][1,4]benzodiazepine]
Efficacy (GABA)% (h-GABAA α2β2γ1): 86%
Fold increase h-GABA-A α2β2γ1 oocyte @ 30-fold Ki (h-GABAA α2β2γ1): 1.86
Ki (h-GABAA α1β3γ2): 2790 nM
γ2/γ1 Selectivity Ratio (h-GABAA α1β3γ2; Table 1): 74.6
LogSel (h-GABAA α1β3γ2; Table 1): 1.87

Fc1cccc(F)c1C1=NCc2nncn2-c2ccc(C(F)F)c(Cl)c21 [Example 23, 7-chloro-8-(difluoromethyl)-6-(2,6-difluorophenyl)-4H-[1,2,4]triazolo[4,3-a][1,4]benzodiazepine]
Efficacy (GABA)% (h-GABAA α2β2γ1): 61%
Fold increase h-GABA-A α2β2γ1 oocyte @ 30-fold Ki (h-GABAA α2β2γ1): 1.61
Ki (h-GABAA α1β3γ2): 1200 nM
γ2/γ1 Selectivity Ratio (h-GABAA α1β3γ2; Table 1): 22.0
LogSel (h-GABAA α1β3γ2; Table 1): 1.34

Cc1nnc2n1-c1ccc(Br)c(Cl)c1C(c1ncccc1F)=NC2 [Example 24, 8-bromo-7-chloro-6-(3-fluoro-2-pyridyl)-1-methyl-4H-[1,2,4]triazolo[4,3-a][1,4]benzodiazepine]
Efficacy (GABA)% (h-GABAA α2β2γ1): 85%
Fold increase h-GABA-A α2β2γ1 oocyte @ 30-fold Ki (h-GABAA α2β2γ1): 1.85
Ki (h-GABAA α1β3γ2): 608 nM
γ2/γ1 Selectivity Ratio (h-GABAA α1β3γ2; Table 1): 25.0
LogSel (h-GABAA α1β3γ2; Table 1): 1.40

Cc1nnc2n1-c1ccc(C(F)F)c(Cl)c1C(c1c(F)cccc1F)=NC2 [Example 25, 7-chloro-8-(difluoromethyl)-6-(2,6-difluorophenyl)-1-methyl-4H-[1,2,4]triazolo[4,3-a][1,4]benzodiazepine]
Efficacy (GABA)% (h-GABAA α2β2γ1): 84%
Fold increase h-GABA-A α2β2γ1 oocyte @ 30-fold Ki (h-GABAA α2β2γ1): 1.84
Ki (h-GABAA α1β3γ2): 1190 nM
γ2/γ1 Selectivity Ratio (h-GABAA α1β3γ2; Table 1): 24.2
LogSel (h-GABAA α1β3γ2; Table 1): 1.38

O=c1[nH]nc2n1-c1ccc(Br)c(Cl)c1C(c1ccccc1F)=NC2 [Example 26, 8-bromo-7-chloro-6-(2-fluorophenyl)-2,4-dihydro-[1,2,4]triazolo[4,3-a][1,4]benzodiazepin-1-one]
Efficacy (GABA)% (h-GABAA α2β2γ1): 45%
Fold increase h-GABA-A α2β2γ1 oocyte @ 30-fold Ki (h-GABAA α2β2γ1): 1.45
Ki (h-GABAA α1β3γ2): 698 nM
γ2/γ1 Selectivity Ratio (h-GABAA α1β3γ2; Table 1): 22.1
LogSel (h-GABAA α1β3γ2; Table 1): 1.34
